Like-named read-outs stand apart in the source and are kept apart here. Bridge positions count the residues as written; N and C are the ends. Peptide text beside a SMILES is read from it.
How the values were obtained:
[1] = tested on: activated human primary PBMC
Description: (§1) After cultivation, the cells were assessed in bioassays as described in the text.
The levels of apoptosis were determined using the annexin V-FITC apoptosis detection kit (eBioscience, Frankfurt, Germany) according to the manufacturer's instructions. After annexin V staining, propidium iodide solution (PI; eBioscience) was added and the cells were incubated in the dark, followed by a flow cytometric analysis to determine the amount of apoptosis and necrosis. CPT (30 μg/mL) and Triton-X 100 (0.5%) was used as positive controls for apoptosis and necrosis, respectively.
Cellular apoptotic and necrotic hallmarks were measured by using inter-nucleosomal DNA fragmentation (subG1^+ cells) assay and phosphatidylserine surface analysis through a single and combinatory annexin V and propidium iodide staining. This double staining process allowed the discrimination between viable (annexin^−/PI^−), apoptotic (annexin^+/PI^− and annexin^+/PI^+) or necrotic (annexin^−/PI^+) cells.

[2] = tested on: activated human primary PBMC; assay: Anti-proliferative CFSE cell division assay on anti-CD3/CD28-activated PBMC; conditions: for IC50: read-out: IC50 (μM) ± STDEV, inhibition of PBMC proliferation, PBMCs, anti-CD3/28 mAbs, 72 h, n.a. = not active; for cytotoxicity in PBMC proliferation assay: at 14 μM
Description: Human peripheral blood mononuclear cells (PBMC) were isolated from the blood of healthy adult donors obtained from the Blood Transfusion Centre (University Medical Center, Freiburg, Germany). Venous blood was centrifuged on a LymphoPrep™ gradient (density: 1.077 g/cm^3, 20 min, 500×g, 20° C.; Progen, Heidelberg, Germany). Afterwards cells were washed twice with medium and cell viability and concentration was determined using the trypan blue exclusion test. PBMC were cultured in RPMI 1640 medium supplemented with 10% heat-inactivated fetal calf serum (PAA, Coelbe, Germany), 2 mM L-glutamine, 100 U/mL penicillin and […] (all from Invitrogen, Karlsruhe, Germany). The cells were cultured at 37° C. in a humidified incubator with a 5% CO2/95% air atmosphere. All experiments conducted on human material were approved by the Ethics committee of the University of Freiburg.
as §1
For cell proliferation and cell division tracking analysis PBMC were harvested and washed twice in cold PBS and resuspended in PBS at a concentration of 5×10^6 cells/mL. Cells were incubated for 10 min at 37° C. with carboxyfluorescein diacetate succinimidyl ester (CFSE; 5 μM: Sigma-Aldrich, Taufkirchen, Germany). The staining reaction was stopped by washing twice with complete medium. Afterwards, the cell division progress was analysed using flow cytometric analysis.
(§2) The anti-proliferative effect of cyclotide mutants/variants was tested according to Example 5. […] Afterwards the cell proliferation was assessed by analysing cell division using flow cytometric-based histogram analysis.

[3] = tested on: CD3 purified T-lymphocytes; assay: Anti-proliferative CFSE assay on magnetic-purified CD3+ lymphocytes; conditions: for IC50: read-out: IC50 (μM) ± STDEV, inhibition of CD3 purified T-lymphocyte proliferation, CD3 purified lymphocytes, anti-CD3/28 mAbs, 72 h
Description: as §2

Compound: Triton-X 100
- induction of necrosis [1]: significantly increased the fractions of these cells

Compound: CC[C@H](C)[C@H](NC(=O)CN)C(=O)NCC(=O)N[C@@H](C)C(=O)N[C@H](C(=O)N[C@@H](CC(C)C)C(=O)N[C@@H](CCCCN)C(=O)N[C@H](C(=O)N[C@@H](CC(C)C)C(=O)N[C@H](C(=O)N[C@H](C(=O)NCC(=O)N[C@@H](CC(C)C)C(=O)N1CCC[C@H]1C(=O)N[C@@H](C)C(=O)N[C@@H](CC(C)C)C(=O)N[C@H](C(=O)N[C@@H](CO)C(=O)N[C@@H](Cc1c[nH]c2ccccc12)C(=O)N[C@H](C(=O)N[C@@H](CCCCN)C(=O)N[C@@H](CCCNC(=N)N)C(=O)N[C@@H](CCCCN)C(=O)N[C@@H](CCCNC(=N)N)C(=O)N[C@@H](CCC(N)=O)C(=O)N[C@@H](CCC(N)=O)C(N)=O)[C@@H](C)CC)[C@@H](C)CC)[C@@H](C)O)[C@@H](C)O)C(C)C)C(C)C [melittin]
- cell division / proliferation of activated PBMC (in words) ([2]; CFSE, flow cytometry, extract 50-100 μg/mL, cyclotides 1.8-14 μM, melittin 0.05-1.6 μM): decrease of proliferating PBMC at 1.6 μM
- induction of necrosis ([1]; kalata B1 14 μM vs untreated control, Triton-X 100, melittin high concentrations): slight effect on necrosis induction at high concentrations
- induction of apoptosis ([1]; kalata B1 1.8-14 μM, CPT 30 μg/mL, melittin up to 1.6 μM): mainly due to the induction of apoptosis

Compound: CC[C@H](C)[C@@H]1NC(=O)[C@@H]2CCCN2C(=O)[C@H](Cc2c[nH]c3ccccc23)NC(=O)[C@H]([C@@H](C)O)NC(=O)[C@@H]2CSSC[C@@H]3NC(=O)[C@H]([C@@H](C)O)NC(=O)[C@H](CCC(=O)O)NC(=O)CNC(=O)[C@@H]4CSSC[C@H](NC(=O)CNC(=O)[C@@H]5CCCN5C(=O)[C@H]([C@@H](C)O)NC(=O)[C@H](CC(N)=O)NC(=O)[C@H](CSSC[C@H](NC1=O)C(=O)N[C@@H]([C@@H](C)O)C(=O)N[C@@H](CCCNC(=N)N)C(=O)N[C@@H](CC(=O)O)C(=O)NCC(=O)N[C@@H](CC(C)C)C(=O)N1CCC[C@H]1C(=O)N[C@@H](C(C)C)C(=O)N4)NC(=O)[C@H]([C@@H](C)O)NC(=O)CNC(=O)CNC(=O)[C@H](Cc1ccccc1)NC3=O)C(=O)N[C@@H](CO)C(=O)N2 [Kalata B2] (cyclo(CFGGTCNTPGCSCTWPICTRDGLPVCGET); disulfide 1-13, 6-18, 11-26)
- IC50 [3]: 0.6 ± 0.02 µM
- IC50 ([2]; cyclotides 1.8-14 μM): 0.2 ± 0.1 µM

Compound: CC[C@@H](C)[C@H]1NC(=O)[C@H]2CCCN2C(=O)[C@@H](Cc2c[nH]c3ccccc23)NC(=O)[C@@H]([C@H](C)O)NC(=O)[C@H]2CSSC[C@H]3NC(=O)[C@@H]([C@H](C)O)NC(=O)[C@@H](CCC(=O)O)NC(=O)CNC(=O)[C@H]4CSSC[C@@H](NC(=O)CNC(=O)[C@H]5CCCN5C(=O)[C@@H]([C@H](C)O)NC(=O)[C@@H](CC(N)=O)NC(=O)[C@@H](CSSC[C@@H](NC1=O)C(=O)N[C@H]([C@H](C)O)C(=O)N[C@H](CCCNC(=N)N)C(=O)N[C@H](CC(=O)O)C(=O)NCC(=O)N[C@H](CC(C)C)C(=O)N1CCC[C@@H]1C(=O)N[C@H](C(C)C)C(=O)N4)NC(=O)[C@@H]([C@H](C)O)NC(=O)CNC(=O)CNC(=O)[C@@H](Cc1ccccc1)NC3=O)C(=O)N[C@H](CO)C(=O)N2 [all-D kalata B2, D-kalataB2]
- IC50 [3]: 2.9 ± 0.4 µM
- IC50 ([2]; cyclotides 1.8-14 μM): 2.3 ± 0.8 µM

Compound: CC(C)C[C@@H]1NC(=O)[C@H](CCCCN)NC(=O)[C@H](CC(N)=O)NC(=O)[C@H](CCCNC(=N)N)NC(=O)[C@H]([C@@H](C)O)NC(=O)[C@@H]2CSSC[C@@H]3NC(=O)[C@H]([C@@H](C)O)NC(=O)CNC(=O)CNC(=O)[C@H](C(C)C)NC(=O)[C@@H]4CSSC[C@H](NC(=O)[C@H](CCCCN)NC(=O)[C@H](CSSC[C@H](NC(=O)[C@H](C(C)C)NC(=O)[C@@H]5CCCN5C1=O)C(=O)NCC(=O)N[C@@H](CCC(=O)O)C(=O)N[C@@H]([C@@H](C)O)C(=O)N4)NC(=O)CNC(=O)[C@@H]1CCCN1C(=O)[C@H]([C@@H](C)O)NC(=O)[C@H](CC(N)=O)NC3=O)C(=O)N[C@@H](CO)C(=O)N[C@@H](Cc1c[nH]c3ccccc13)C(=O)N1CCC[C@H]1C(=O)N[C@@H](C(C)C)C(=O)N2 [T20K, G1K, Kalata T20K, G1K] (cyclo(CGETCVGGTCNTPGCKCSWPVCTRNKLPV); disulfide 1-15, 5-17, 10-22)
- cytotoxicity in CD3 purified lymphocyte proliferation assay ([3]; at 14 μM): (cytotoxic)
- IC50 [3]: 1.1 ± 0.7 µM
- cytotoxicity in PBMC proliferation assay [2]: (cytotoxic)
- cytotoxicity in PBMC proliferation assay ([2]; listed as T20K+G1K): cytotoxic

Reference: US10357537B2, “Cyclotides as immunosuppressive agents” (priority 2011, dated 2019)
